One data set has as its system DNA. To be noted: dark; cited from earlier work.
A further data set concerns Sindbis virus. The following applies: cited from earlier work.
A further data set relates to bacteriophage φ6. The following applies: cited from earlier work.
For data set [1] the following is noted: cited from earlier work.
A further data set deals with nucleic acid. The following applies: cited from earlier work.
The subject of another data set is cell. To be noted: cited from earlier work.
The subject of the next data set is protein. To be noted: cited from earlier work.
Another data set has as its system Calf thymus DNA. Put plainly: Dark association with DNA, UV-Visible titration (Example XI). The class given is binding. The following applies: 50 mM pH 7 I=0.15 sodium phosphate buffer (physiological condition).
Another data set has as its system φX-174 plasmid DNA. Nature of the data set: Photonicking of φX-174 plasmid DNA, gel electrophoresis. To be noted: Example IX, dark and upon exposure to light. The class given is biochemical. How it is done: Photolysis with φX-174 Plasmid DNA. Metal complex solutions (with or without quenchers) were saturated with oxygen or argon prior to irradiation. The solutions were further degassed after being mixed with the plasmid. The final solution concentrations were: DPPZPHEN ([…]), φX-174 plasmid DNA (205 μM in base pairs), superoxide dismutase (25 μg/mL), 2-propanol (0.5 M), mannitol (6.25 mM), histidine (8 mM).
Experiments were conducted as described in Example X to evaluate the amount photonicking that occurred in the dark and upon exposure to light for 37TMBP, 56TMBP, OCTBP, BISNMe2, TMOBP, TIOBP, TPBP, BISTAP and BISDPPZ.

In a further data set the test system is M109 cells. Nature of the data set: Phototoxicity to M109 tumor cells, MTT assay. The class given is cell-based, mouse. The following applies: OCTBP, 55 μM (FIG. 10). How it is done:
(§1) Photolysis with Tumor Cells.
Procedures for cell maintenance, cell plating, drug incubation, photolysis and MTT assay are all same as that used for the KB cell lines. A small amount of dark toxicity was observed (about 15%). A considerable amount of killing occurs with light alone after 30 and 40 minutes of irradiation (FIG. 10).

The next data set deals with GN4 cells. Nature of the data set: Phototoxicity to GN4 tumor cells, MTT assay. Format: cell-based, canine. The method, then:
as §1
Media was decanted from the flask. […] Trypsin-EDTA was then decanted and the flask was incubated at 37° C. for 8 minutes. […] Released cells were suspended in 5 mL of media and shaken well. […] The remaining cells were discarded.
Cells were plated, incubated with the drug, and photolysis was conducted as for the KB cell lines.

The next data set has as its system cell membrane. Nature of the data set: Cell uptake / passage through the cell membrane. How it is done:
OCTBP uptake by KB cells. 11 mg of OCTBP was dissolved in 40 mL of PBS buffer. The solution was vortex stirred for 5 minutes to completely dissolve the solid. The solution was sterile filtered through a 0.2μ nylon syringe filter. The concentration of the solution was determined by measuring the UV absorption at 353 nm (ε353nm=1565 M^−1cm^−1).
Once the cells were 75% confluent media was decanted from the flasks and 8 mL of drug solutions were added to three flasks and 8 mL of PBS buffer solution was added to the control flask. The flasks were incubated at 37° C. for 15, 30 and 45 minutes. Control flask was incubated for 45 minutes. When the flasks were removed, they were washed with 6×10 mL of PBS buffer solution. All the liquid was carefully decanted from the flasks. 1 mL of lysing buffer (1% triton X-100) was added to each of the four flasks. The walls of the flasks were rinsed using disposable pipettes. Once all the contents of the flasks were placed into a 1.5 mL disposable centrifuge tubes (each flask yielded ˜1.2 mL), the tubes were centrifuged at 6000 rpm and at 4° C. for 30 minutes on the Fisher Model 59V high-speed centrifuge. BCA Assay was done to establish the amount of cells in each flask.
Rh content of each flask was determined using an inductively coupled plasma (ICP) instrument (AtomScan16, Thermo Elemental, Franklin, Mass.). From each centrifuge tube 1 mL was pipetted and 370 μL of concentrated HCl was added to form a 10% solution. The samples were heated in a hot water bath at 70° C. for 30 minutes. The samples were centrifuged again and the supernatant liquid was diluted to 8 mL by adding nano-pure water. The samples were analyzed for Rh content by ICP.

Data set [2] in a line: Reversed phase HPLC elution on C8 column as measure of hydrophobicity. To be noted: 45% acetonitrile in 100 mM ammonium acetate pH 5.4. The class given is physicochemical. The method, then:
Reversed phase high performance liquid chromatography (RP-HPLC) was carried out on C8 columns. Compounds were tested using 20%, 30% and 45% acetonitrile in 100 mM ammonium acetate at pH 5.4 for elution on a C8 column, with the intention of achieving an elution time of about 15 minutes. It was expected that the more hydrophobic a compound, the higher the acetonitrile content one would need for the eluent.

Data set [3] can be described thus: Photodestruction (photoaquation) with visible light >500 nm, HPLC analysis. The class given is physicochemical. The following applies: 0.1 mM aqueous, 8 hours under argon. How it is done: Aqueous solutions (3 mL, 0.1 mM) of the Rh complexes were irradiated for 8 hours under argon using a 450 W Hanovia medium pressure mercury lamp filtered through a uranium yellow glass (cut-off<330 nm) and a 1.5 cm 0.5% (w/v) aqueous solution of K2Cr2O7 (0% transmittance≦500 nm). Photodestruction of the metal complexes was followed by HPLC analysis.

The nature of data set [4]: Dark thermal aquation and thermal base hydrolysis. The following applies: 80° C. with 10% NaOH. Format: physicochemical. From the text:
A dissociation/addition mechanism is generally accepted as responsible for the substitution chemistry associated with a hexacoordinated Rh(III) ligand field triplet (Weiland et al., Inorg. Chem., 25:4893 (1986)). The dissociation step is due to the promotion of an electron from the t2g orbital to the eg orbital, which leads to significant weakening of the metal ligand bonds. (Hipps et al., Inorg. Chem., 13:1544 (1974)).

For data set [5], the system named is calf thymus DNA than BSA protein. Put plainly: In vitro kinetic and thermodynamic studies of affinity, DNA versus protein. Format: binding.
The subject of the next data set is cells. Nature of the data set: Phototoxicity, summary statement of Example XII. The class given is cell-based.
In the next data set the test system is KB cells. Put plainly: Phototoxicity to KB tumor cells, MTT assay.

Read-outs that look alike come from different tables or passages of the source.

Description for KB cells: Photolysis with Tumor Cells. […] At the beginning of an experiment media was removed from all plates and the cells were washed with 1 mL of PBS or Hank's salt solution. Drug solution (2 mL) or buffer solution (2 mL) was added to each dish. […] Cells were incubated, with or without metal complex, for 4 hours. After incubation, the solutions were removed from the dishes and the dishes were washed with 1 mL of PBS or Hank's salt solution. A fresh 1 mL of PBS or Hank's salt solution was added to each dish and these were placed on a turntable that sat on the top part of the photolysis chamber. […] The plates were then incubated for 40-48 hours before a determination of the extent of cell toxicity by MTT assay.
Cells were incubated in 75 cm^2 culture flasks. They were grown in Dulbecco's Modified Eagles Medium (D-MEM) supplemented with 10% heat inactivated fetal bovine serum (FBS), 1% L-glutamine-penicillin-streptomycin and 1% amphotericin-B. When cells were not plated for use in an experiment, they were transferred when they were 75-100% confluent using the following procedure. Media was decanted from the flask. Cells were rinsed 1-2 times with 10 mL of Hank's Balanced salt solution. […] Trypsin-EDTA was then decanted and the cells were released from the wall of the flask by tapping the side of the flask. Released cells were suspended in 5 mL media and 1 mL of this suspension was placed in a new culture flasks containing 20 mL of fresh media. The remaining cells were discarded. A culture flask can be used for 3 transfers.
Usually 16-24 hours before a photolysis experiment, cells were plated in 35×10 mm tissue culture dishes and incubated at 37° C. until the experiment was begun. Cells were about 75-100% confluent in the 75 cm^2 culture flask when plated. After being washed and released from the flask as described above, cells were suspended in 40 mL media and 1.5 mL of suspension was placed in each dish.
The concentration of the solution was 70 μM.
The cell dishes were incubated with drug or Hanks balanced salt solution (1 mL) for 3 hours. After incubation, solutions were decanted from the plates and 1 mL of Hank's Balanced salt solution were placed in each. […] Following photolysis, Hank's Balanced salt solutions were decanted and 1 mL of fresh media was placed in each plate.
Plates were incubated for 65 hours and then analyzed for cell survival by MT assay. 5 mg/mL MTT solution in water was prepared and 100 μL of this solution was added to each plate and the plates were incubated for 1.5 hours. Purple crystals formed from live cells. Media was gently removed from plates using a Pasteur pipette, the purple crystals that remained at the bottom of the dish were dissolved in 6 mL of isopropanol.
Phototoxicity studies with long wavelength light (>400 nm). […]

For the compound `[Cl-].[Cl][Rh+]12([Cl])([N]=c3c(c4ccccc4c4ccccc34)=[N]1)[N]1C=CC=c3ccc4c(c31)[N]2C=CC=4` [PHENPHI, cis-dichloro(1,10-phenanthroline)(9,10-phenathrenequinone diimine)rhodium(III) chloride], the “Keq of dark association with DNA” value in the data set on DNA was 37000 M⁻¹. Further, the “phototoxicity / virucidal activity against Sindbis virus” value in the data set with Sindbis virus is “potent virucidal activity”. Also, the “activity against bacteriophage φ6” value in the data set with bacteriophage φ6 was “potent virucidal activity”. Further, the stability result in data set [1] (37° C., phosphate-buffered saline (PBS) pH 7) is recorded as “decomposing”; in data set [1] (room temperature, Tris buffer pH 7) it was “decomposing”. The ligand exchange entry in [1] (acetate buffer pH 5) is “readily substitutes acetate for chloride ligand”. The photonuclease activity entry with nucleic acid is on record as “exhibited photonuclease activity”. For the same compound, the “covalent binding to nucleic acid upon irradiation” value with nucleic acid (irradiated with light) is “covalently binds to DNA”. In addition, the photoinduced cell death entry with cell was “substantial photoinduced cell death”. For the same compound, in the data set with cell (without liposomes), the “penetration of the cell membrane” value is “does not require liposomes to penetrate the cell membrane”. In the data set with protein, the “binding affinity for protein” value is “substantial binding affinity for protein”.

With `CC1=C[N]2c3c4c(ccc3=C1C)=C(C)C(C)=C[N]4[Rh+]21([Cl])([Cl])[N]2C=C(C)C(C)=c3ccc4c(c32)[N]1C=C(C)C=4C.[Cl-]` [OCTBP, cis-dichlorobis(3,4,7,8-tetramethyl-1,10-phenanthroline) rhodium(III) chloride], the “apparent (intrinsic) binding constant Kapp” value in the data set on Calf thymus DNA is recorded as 4.25 E3 M. Further, in the data set with φX-174 plasmid DNA, the “photonicking of φX-174 plasmid DNA” value is “Only TPBP, BISTAP, BISDPPZ and BISDPPHEN complexes were found to photonick”. Moreover, the dark toxicity result in the data set with M109 cells is reported as “about 15%”; in the data set on KB cells (OCTBP 70 μM), “dark toxicity wasn't observed”; with KB cells (OCTBP 80 μM), “considerable amount of dark toxicity”. Moreover, the photo-cell death result in the data set with GN4 cells (OCTBP 55 μM, 311 nm) was “no photo-cell death occurred”. For the same compound, the cell death with GN4 cells (OCTBP 63 μM, >400 nm light, 60 minutes) was determined as 25%; with KB cells (OCTBP 55 μM, >400 nm light, 60 minutes), 40%. Besides, in the data set on GN4 cells (OCTBP 75 μM, 311 nm, 40 minutes), the photo-initiated cell death result is “about 20%”. Further, in the data set with cell membrane, the “ability to pass through the cell membrane” value was “able to pass through the cell membrane”. Further, the elution time entry in data set [2] is “about 15 minutes”. In data set [3], this compound came in with a photodestruction of 9.3 % loss. Also, the “thermal hydrolysis, rank order” value in data set [4] is “OCTBP≅37TMBP>BISPHEN”. Moreover, the “affinity toward calf thymus DNA compared with BSA protein” value in data set [5] is given as “greater affinity toward calf thymus DNA than BSA protein”. In addition, in the data set with cells, the phototoxicity result is on record as “are phototoxic”.

The values above are taken from patent publication US20060111335A1, “Photoactivated anti-viral and anti-cancer agent” (priority 2002, published 2006).
